Measurements from patent US9725417B2, “Cdc42 inhibitor and uses thereof” (priority 2011, dated 2017).
Values after ≈ are worked out from the molar mass of the structure shown.

Columns and labels:
GTP-bound (active) Cdc42 = molecular target: T1, GTP-bound (active) Cdc42 (Mus musculus, UniProt P60766); assay: G-LISA of GTP-bound (active) Cdc42 in Swiss 3T3 lysates; type: cell-based; conditions: then 1 unit/mL Cdc42 activator 2 minutes
T1 construct: endogenous in cells; host or cells: Swiss 3T3 fibroblasts (mouse)
T1 sequence (P60766 whole entry): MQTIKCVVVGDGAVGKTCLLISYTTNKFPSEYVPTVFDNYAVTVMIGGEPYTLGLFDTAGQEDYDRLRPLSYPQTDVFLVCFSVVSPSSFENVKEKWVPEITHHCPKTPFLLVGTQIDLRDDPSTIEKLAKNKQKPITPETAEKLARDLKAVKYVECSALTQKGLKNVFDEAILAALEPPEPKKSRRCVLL
Description: Serine 71 phosphorylation can occur on both Rac and Cdc42. To directly assess specific Cdc42 activation and inactivation, a G-LISA, an ELISA-based assay that allows a quantitative determination of the levels of GTP-bound (active) Cdc42 in cellular lysates was utilized. Serum-starved Swiss 3T3 fibroblasts were incubated for 1 hour with 50 μM ZCL278 or 10 μM NSC23766 (Rac inhibitor), followed by 2 minutes of stimulation with 1 unit/mL Cdc42 activator.
Finally, the ability of NSC23766 to cross-inhibit Cdc42 activation was analyzed. NSC23766 was developed in a similar manner as ZCL278; however, it is specific to Rac and should therefore act as an additional negative control in this assay.
G-LiSA kit: Swiss 3T3 cells were cultured to 40% of the growth density, then removed serum and cultured for 48 hours, treated with Cdc42 agonist for 1 minute, and treated with the 50 uM ZCL278 and 10 uM NSC23766. Cell lysis proteins were extracted according to kit instructions, and analysis of the quantification of total protein concentration to be 0.15 mg/ml. Untreated cells or cells treated with buffer were used as negative control while the agonist treated cells and active Cdc42 protein were used as a positive control. Enzyme linked immunosorbent assay measured the absorbance value of each sample 490 nm light wave.

active Cdc42 = assay: Immunofluorescence staining of active Cdc42 in Swiss 3T3 cells; type: cell-based, mouse; conditions: 50 uM ZCL278 or 10 uM NSC23766, Cdc42 agonist 1 unit/ml
Description: (§1) Immunofluorescent staining: Swiss3T3 cells were grown on coverslips to 30% confluence. In serum-deprived culture, cells were treated with 10 uM NSC23766 or 50 uM ZCL278 for 1 hour followed by 1 unit/mL Cdc42 agonists (Cytoskeleton Products) treatment for 1 minute. Added agonist alone was used as a positive control while DMSO was used as a negative control. Cells on the coverslips were fixed in 4% paraformaldehyde for 15 minutes, and in 0.2% Triton X-100 for permeabilization for 15 minutes and then blocked in 10% BSA for 30 minutes.
(§2) Incubation with antibodies: anti-active Cdc42 (mouse antibody, Neweast Biosciences); phosphorylated RhoA antibody (rabbit antibody, Santa Cruz Biotechnology Company); GM130 antibody (mouse antibody, BD Biosciences Company). The next step was to apply corresponding secondary antibody. Rhodamine, Phalloidin was incubated for 1 hour at room temperature to observe filamentous actin under the Zeiss Axiovert fluorescent light microscopy of cells staining. Image processing software MetaMorph-5 was used to randomly select cells in randomly selected five-point pixels to obtain the average number of each group for pixel intensity values.
(§3) Determination of selective inhibition of Cdc42 activation by ZCL278 at the cellular level. […] FIG. 3C: Pixel intensity of phospho-RhoA in cells after treatments with Activator, ZCL278, or NSC23766 was quantified. […]

phosphorylated RhoA = assay: Immunofluorescence staining of phosphorylated RhoA in Swiss 3T3 cells; type: cell-based, mouse; conditions: 50 uM ZCL278, 10 uM NSC23766 or 1 unit/ml Cdc42 agonist
Description: as §1, §2, §3

GM130 = assay: GM130-docked Golgi organization in Swiss 3T3 cells; type: cell-based, mouse; conditions: 50 uM ZCL278 or 10 uM NSC23766, Swiss 3T3
Description: as §1
as §2, with “values. […]” for “values.”

PC-3 cells [1] = assay: Wound healing (migration) assay in PC-3 cells; type: cell-based, human; conditions: 24 hours; for wound closure: control 41%
Description: Filopodia are dynamic structures that aid cells in pathfinding and migration, and are largely controlled by Cdc42 activity. Using a metastatic line of human prostate cancer cells (PC-3), a wound healing assay was used in order to elucidate the effects of ZCL278 on cellular migration. 1 unit/ml Cdc42 activator; 50 uM or 5 uM of ZCL278; and 10 uM […] respectively, were used to treat cells for 24 hours, with Cdc42 activator as positive control, and no treatment as negative control. Cells were photographed at 0 and 24 hours following drug treatments and MetaMorph software was used to determine the distances cells had migrated. Black line indicates the boundary of wounded area. Each experiment was tested with p value (p<0.05).
The experiment was repeated three times and the means were obtained:**; p<0.01,*:p<0.05. Wound closure was less pronounced at 50 μM (8%) than 5 μM (30%) concentrations.

PC-3 cells [2] = assay: Trypan blue dye exclusion cell viability in PC-3 cells; type: cell-based; conditions: 50 μM ZCL278 or 10 μM NSC23766, 24 hours, PC-3, trypan blue
Description: Examination of cell survival: PC3 cells were plated at 75000/ml for 48 hours, serum was removed and 50 uM ZCL278 or 10 uM NSC23766 was added, and then continue to culture for 24 hours before staining with trypan blue to determine cell survival rate.
In order to ensure that decreases in cellular migration seen with ZCL278 treatment was due to Cdc42 inhibition (or Rae inhibition when treated with NSC23766) rather than cell death, cell viability was tested using the trypan blue dye exclusion assay. PC-3 cells were arrested in G0, and then 50 μM ZCL278 or 10 μM NSC23766 was applied for 24 hours. […] Therefore, the differences seen in migratory ability is due to ZCL278-mediated Cdc42 inhibition or NSC23766-mediated Rac inhibition and not cell death.

Cdc42 [3] = molecular target: T2, Cdc42 (Homo sapiens, UniProt P60953); assay: Fluorescence titration of purified Cdc42 with ZCL278 (tryptophan fluorescence); type: binding; conditions: emission monitored at 350 nm
T2 sequence (P60953 whole entry, species assumed): as the sequence (P60766 whole entry) above
Description: The binding affinity of ZCL278 and Cdc42 was assessed by using two independent biophysical methods. First, fluorescence titration of purified Cdc42 ZCL278 was carded out by monitoring the change of fluorescence intensity of a tryptophan residue on CAc42 upon ZCL278 binding. As ZCL278 has a weak absorption peak at 310 nm, to avoid any experimental error that might result from potential fluorescence quenching by ZCL278, the fluorescence emission of Cdc42 was monitored at 350 nm, at which ZCL278 has a negligible absorption. […] These species in solution may have modifying effects on membrane transport and binding to Cdc42.

Cdc42 [4] = molecular target: T2, Cdc42; assay: Surface plasmon resonance, purified Cdc42 immobilized on CM5 chips; type: binding; conditions: SPR
Solubility determination = type: physicochemical
[5] = tested on: Cdc42-mediated microspike/filopodia formation in Swiss 3T3 fibroblasts; assay: Cdc42-mediated microspike/filopodia formation in serum-starved Swiss 3T3 fibroblasts; type: cell-based, mouse; conditions: 50 μM for 1 hour, then Cdc42 activator 2 minutes
Description: 30 selected ZCL compounds were assessed for their ability to inhibit Cdc42-mediated microspike/filopodia formation in serum-starved Swiss 3T3 fibroblasts. Actin-based microspikes/filopodia are characteristic of Cdc42 activity in cultured fibroblastic cells. […] When arrested fibroblasts were briefly stimulated with 1 unit/mL of a commercial Cdc42 activator, a dramatic increase in microspike number and decrease in stress fibers occurred (FIG. 2A, Activator). Compound ZCL278 was applied at 50 μM for 1 hour and then stimulated with the Cdc42 activator for 2 minute. The cell periphery of ZCL278-treated cells resembles control cells with few microspikes (FIG. 2A, ZCL278).

phospho-Rac/Cdc42 = assay: Western blot of phospho-Rac/Cdc42 (Serine 71) in PC-3 cells; type: cell-based, human; conditions: 50 μM for 5, 10 and 15 minutes
Description: First, Cdc42 activation was investigated in human metastatic prostate cancer PC-3 cells that were treated with the Cdc42 activator or 50 μM ZCL278 for 5, 10, and 15 minutes. Serine 71 phosphorylation is known to negatively regulate Rac/Cdc42 activity, thus an increase: in phospho-Rac/Cdc42 expression is indicative of a decrease in active (GTP-bound) Rac/Cdc42.
(§4) The Western blot: PC3 cells cultured to approximately 70% of the density, then removed serum and cultured for 16 hours, with addition of drugs: 1 unit/mL Cdc42 agonist (cytoskeleton) 5 uM, 50 uM ZCL278 to treat cells for 5, 10, and 15 minutes respectively. Cell lysis buffer (Formulation: 50 mM Tris buffer solution pH 7.5, 10 mM magnesium chloride, 0.5 M sodium chloride, 1% Triton X-100 and protease inhibitors) cell lysis and centrifuged at 14000 rpm and 4° C. to obtain extracted protein samples. Western blot analysis was conducted using antibody: phosphorylated Rac1/Cdc42 (Milipore Company), phosphorylated WASP (Assay Biotech Company), all at 1:1000, and GAPDH antibody (Calbiochem Company) on PVDF membrane for chemiluminescence development.

phospho-WASP = assay: Western blot of phospho-WASP in PC-3 cells; type: cell-based, human; conditions: 50 μM, up to 15 minutes
Description: Wiskott-Aldrich syndrome Protein WASP) is a downstream effector of Cdc42 activation. Tyrosine phosphorylation WASP is linked to rapid Cdc42 degradation following its activation. […] Thus, ZCL278 inhibits Rac/Cdc42 phosphorylation in a time-dependent manner and maintains tyrosine phosphorylation of WASP.
as §4

[6] = tested on: primary neonatal cortical neurons; assay: Neuronal branching in primary neonatal cortical neurons; type: cell-based, mouse; conditions: 50 μM for 5 and 10 minutes, 5 days in vitro
Description: Primary neonatal day-one mouse brain was incubated with 0.25% trypsin HBSS for 15 minutes at 37° C., gently separated neurons were plated on poly-L-lysine coated coverslips, incubated with DMEM containing 10% bovine serum for 16 hours, then the media was changed to Neurobasal (Invitrogen). At 5 days in vitro, the cells were treated with either DMSO or 50 uM ZCL278 for 5 or 10 minutes, then fixed in 4% paraformaldehyde for 15 minutes. Fluorescein-phalloidin was applied to stain for F-actin structure and the neuronal morphology was observed under the Zeiss light microscope.
(§5) Time-lapsed video light microscopy was used to observe the effects of ZCL278 on neuronal growth cone dynamics, Hamamatsu Orca digital camera was used to record the cell images under 63× magnification for 10 minute. 300 ms exposure for imaging was used to minimize phototoxicity. The images were analyzed using MetaMorph software and statistical analysis was performed. At 5 days cultured in vitro, cortical neurons extended neurites with multiple branches (FIG. 6A, Control). 50 μM of ZCL278 was applied for 5 and 10 minutes, while DMSO-treated neurons were maintained as negative controls.

[7] = tested on: growth cone filopodia of cortical neurons; assay: Time-lapse video microscopy of growth cone dynamics in cortical neurons; type: cell-based, mouse; conditions: ZCL278 treatment, cortical neuron growth cone
Description: as §5
Cdc42 is also widely known to control filopodia and microspikes at the leading edge of migrating growth cones. […] Thus, these studies further support ZCL278 as an effective small-molecule inhibitor of Cdc42-mediated neuronal branching and growth cone motility.

SMILES	effect on GTP-Cdc42 content (GTP-bound (active) Cdc42; 10 μM NSC23766 1 hour)	perinuclear distribution and immunoreactivity of active Cdc42 (active Cdc42)	pixel intensity of phospho-RhoA (phosphorylated RhoA)	GM130 immunoreactivity and distribution (GM130)	cellular migration (PC-3 cells [1]; 10 uM)	cell viability versus non-treated cells (PC-3 cells [2])	Kd (Cdc42 [3]) [µM]	Kd (Cdc42 [4]) [µM]	solubility (Solubility determination) [µM]	inhibition of microspike formation [5]	Rac/Cdc42 phosphorylation (Serine 71) (phospho-Rac/Cdc42)	phospho-WASP expression (phospho-WASP)	decrease in GTP-Cdc42 content compared with cells treated solely with the activator (GTP-bound (active) Cdc42; 50 μM ZCL278 1 hour) [%]	wound closure (PC-3 cells [1]; 5 μM) [%]	wound closure (PC-3 cells [1]; 50 μM) [%]	neuronal branch number [6]	time to retraction of filopodia [7] [min]
CCN(CC)CCCC(C)Nc1nc(C)cc(Nc2ccc3nc(C)cc(N)c3c2)n1 (stereo not drawn) [NSC23766, reference compound]	does not reduce GTP-Cdc42 content	did not have similar effects	did not alter the phosphorylation RhoA	did not significantly after GM130 expression or distribution	significantly reduced	no difference in viability											
Cc1cc(C)nc(NS(=O)(=O)c2ccc(NC(=S)NC(=O)COc3ccc(Br)cc3Cl)cc2)n1 [ZCL278, 4-(3-(2-(4-Bromo-2-chlorophenoxy)acetyl)thioureido)-N-(4,6-dimethylpyrimidin-2yl)benzenesulfonamide]		obviously reduced this distribution	did not alter the phosphorylation RhoA	clear reduction of GM130 immunoreactivity		no difference in viability	6.4	11.4	181 (≈ 106 µg/mL)	obvious inhibition of microspike formation	time-dependent increase	does not suppress phospho-WASP activity	~80	30	8	significantly reduced	≤ 4
